Test results published in the NIST ThermoML archive (doi:10.1016/j.jct.2009.04.005).
Numbers after ± are expanded uncertainties.

Conditions: 298.15 K, Liquid; for vapor or sublimation pressure: Closed cell (Static) method; for mass density: Vibrating tube method

| vapor or sublimation pressure [kPa] | mass density [kg/m3] | Compound |
| --- | --- | --- |
| 2.34 ± 0.02 | 802.451 ± 0.31 | CCC(C)O (stereo not drawn) [butan-2-ol] |
| 0.91 ± 0.012 | 805.802 ± 0.15 | CCCCO [butan-1-ol] |
| 20.22 ± 0.05 | 654.96 ± 0.33 | CCCCCC [hexane] |

| Compound | vapor or sublimation pressure [kPa] | mass density [kg/m3] |
| --- | --- | --- |
| CCCCCl [1-chlorobutane] | 13.52 ± 0.034 | 880.805 ± 0.3 |
